These results are taken from patent publication US8476434B2, “Protein kinase modulators and method of use” (Amgen Inc., priority 2004, dated 2013).

For the assay, the target named is T1, LCK KD GST (225-509) (Homo sapiens, UniProt P06239).
T1 construct: LCK KD GST (225-509); GST
The experiment in a line: LCK Homogenous Time Resolved Fluorescent (HTRF) kinase assay. It counts as biochemical. The protocol: The LCK HTRF assay begins with LCK in the presence of ATP phosphorylating the biotinylated peptide Gastrin. The reaction incubates for 90 min. To quench the assay detection reagents are added which both stop the reaction by diluting out the enzyme and chelating the metals due to the presence of EDTA. Once the detection reagents are added the assay incubates for 30 min to allow for equilibration of the detection reagents.
Buffer conditions are as follows: 50 mM HEPES pH 7.5, 50 mM NaCl, 20 mM MgCl, 5 mM MnCl, 2 mM DTT, 0.05% BSA.
The assay is quenched and stopped with 160 μL of detection reagent. Detection reagents are as follows: Buffer made of 50 mM Tris, pH 7.5, 100 mM NaCl, 3 mM EDTA, 0.05% BSA, 0.1% Tween20.
The assay plate is read in either a Discovery or a RubyStar.

T1 sequence (P06239 225-509): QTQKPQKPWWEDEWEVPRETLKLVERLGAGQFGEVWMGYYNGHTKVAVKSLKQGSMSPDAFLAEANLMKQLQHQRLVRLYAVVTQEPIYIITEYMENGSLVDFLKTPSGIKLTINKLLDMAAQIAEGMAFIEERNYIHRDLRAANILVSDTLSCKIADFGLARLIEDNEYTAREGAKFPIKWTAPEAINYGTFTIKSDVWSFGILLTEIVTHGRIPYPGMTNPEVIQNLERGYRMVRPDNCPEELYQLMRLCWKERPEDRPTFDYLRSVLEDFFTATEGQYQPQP

With `CNc1ncnc(-c2cccnc2Oc2cc(C(=O)Nc3cccc(C(F)(F)F)c3C)ccc2C)n1` [4-methyl-3-((3-(4-(methylamino)-1,3,5-triazin-2-yl)-2-pyridinyl)oxy)-N-(2-methyl-3-(trifluoromethyl)phenyl)benzamide], the IC50 (commonly the concentration that gives 50% inhibition) was less than 1 µM.
Molecule `CNc1ncnc(-c2cccnc2Oc2cc(C(=O)Nc3cccc(C(C)C)c3)ccc2C)n1` [4-methyl-3-((3-(4-(methylamino)-1,3,5-triazin-2-yl)-2-pyridinyl)oxy)-N-(3-(1-methylethyl)phenyl)benzamide] displayed an IC50 of less than 1 µM.
Molecule `CNc1ncnc(-c2cccnc2Oc2cc(C(=O)Nc3cccc(OCc4ccccc4)c3)ccc2C)n1` [4-methyl-3-((3-(4-(methylamino)-1,3,5-triazin-2-yl)-2-pyridinyl)oxy)-N-(3-((phenylmethyl)oxy)phenyl)benzamide] came in with an IC50 of less than 1 µM.
To `CNc1ncnc(-c2cccnc2Oc2cc(C(=O)Nc3cccc(C(F)(F)F)c3)ccc2C)n1` [4-methyl-3-((3-(4-(methylamino)-1,3,5-triazin-2-yl)-2-pyridinyl)oxy)-N-(3-(trifluoromethyl)phenyl)benzamide] belongs less than 1 µM.
For `Cc1ccc(C(=O)Nc2ccc(C(F)(F)F)cc2)cc1Nc1ncccc1-c1ccncn1` [4-methyl-3-((3-(4-pyrimidinyl)-2-pyridinyl)amino)-N-(4-(trifluoromethyl)phenyl)benzamide], the IC50 is less than 1 µM.
Consider `Cc1ccc(C(=O)Nc2cccc(C(F)(F)F)c2)cc1Oc1ncccc1-c1ccncn1` [4-methyl-3-((3-(4-pyrimidinyl)-2-pyridinyl)oxy)-N-(3-(trifluoromethyl)phenyl)benzamide], for which the IC50 is less than 1 µM.
To `CNc1cc(-c2cccnc2Oc2cc(C(=O)Nc3cccc(C(F)(F)F)c3)ccc2C)ncn1` [4-methyl-3-((3-(6-(methylamino)-4-pyrimidinyl)-2-pyridinyl)oxy)-N-(3-(trifluoromethyl)phenyl)benzamide] belongs less than 1 µM; to `COc1ccc(C(F)(F)F)cc1NC(=O)c1ccc(C)c(Oc2ncccc2-c2ccncn2)c1` [4-methyl-N-(2-(methyloxy)-5-(trifluoromethyl)phenyl)-3-((3-(4-pyrimidinyl)-2-pyridinyl)oxy)benzamide], less than 1 µM; to `Cc1ccc(C(=O)Nc2cccc(C(C)C)c2)cc1Oc1ncccc1-c1ncnc(NCCCN2CCOCC2)n1` [4-methyl-N-(3-(1-methylethyl)phenyl)-3-((3-(4-((3-(4-morpholinyl)propyl)amino)-1,3,5-triazin-2-yl)-2-pyridinyl)oxy)benzamide], less than 1 µM.
Molecule `CNc1nccc(-c2cccnc2Oc2cccc(NC(=O)c3cc(C(C)(C)C)ccc3OC)c2)n1` [5-(1,1-dimethylethyl)-N-(3-((3-(2-(methylamino)-4-pyrimidinyl)-2-pyridinyl)oxy)phenyl)-2-(methyloxy)benzamide] registered an IC50 of less than 1 µM.
Take `CNc1nccc(-c2cccnc2Oc2cc(NC(=O)c3cc(C(C)(C)C)ccc3OC)ccc2C)n1` [5-(1,1-dimethylethyl)-N-(4-methyl-3-((3-(2-(methylamino)-4-pyrimidinyl)-2-pyridinyl)oxy)phenyl)-2-(methyloxy)benzamide]: the IC50 was less than 1 µM.
The molecule `CNc1nccc(-c2cccnc2Oc2ccc(NC(=O)Nc3cc(Cl)ccc3Cl)cc2C)n1` [N-(2,5-dichlorophenyl)-N′-(3-methyl-4-((3-(2-(methylamino)-4-pyrimidinyl)-2-pyridinyl)oxy)phenyl)urea] yielded an IC50 of less than 1 µM.
`CNc1nccc(-c2cccnc2Oc2ccc(NC(=O)Nc3cc(C)ccc3C)cc2C)n1` [N-(2,5-dimethylphenyl)-N′-(3-methyl-4-((3-(2-(methylamino)-4-pyrimidinyl)-2-pyridinyl)oxy)phenyl)urea] returned an IC50 of less than 1 µM.
On to `CNc1cc(-c2cccnc2Oc2ccc(F)c(C(=O)Nc3cc(C(C)(C)C)ccc3N(C)CCCN(C)C)c2)ccn1` [N-(2-((3-(dimethylamino)propyl)(methyl)amino)-5-(1,1-dimethylethyl)phenyl)-2-fluoro-5-((2′-(methylamino)-3,4′-bipyridin-2-yl)oxy)benzamide], for which the IC50 is less than 1 µM.
With `CNc1ncnc(-c2cccnc2Oc2ccc(F)c(C(=O)Nc3cc(C(C)C)ccc3N(C)CCCN(C)C)c2)n1` [N-(2-((3-(dimethylamino)propyl)(methyl)amino)-5-(1-methylethyl)phenyl)-2-fluoro-5-((3-(4-(methylamino)-1,3,5-triazin-2-yl)-2-pyridinyl)oxy)benzamide], the IC50 was less than 1 µM.
For the molecule `CNc1ncnc(-c2cccnc2Oc2ccc(F)c(C(=O)Nc3cc(C(F)(F)C(F)(F)F)ccc3N(C)CCCN(C)C)c2)n1` [N-(2-((3-(dimethylamino)propyl)(methyl)amino)-5-(pentafluoroethyl)phenyl)-2-fluoro-5-((3-(4-(methylamino)-1,3,5-triazin-2-yl)-2-pyridinyl)oxy)benzamide], the IC50 was less than 1 µM.
To `CNc1ncnc(-c2cccnc2Oc2ccc(F)c(C(=O)Nc3cc(C(F)(F)F)ccc3N(C)CCCN(C)C)c2)n1` [N-(2-((3-(dimethylamino)propyl)(methyl)amino)-5-(trifluoromethyl)phenyl)-2-fluoro-5-((3-(4-(methylamino)-1,3,5-triazin-2-yl)-2-pyridinyl)oxy)benzamide] belongs less than 1 µM; to `CNc1cc(-c2cccnc2Oc2cc(C(=O)Nc3cc(C(F)(F)F)ccc3N(C)CCCN(C)C)ccc2C)ccn1` [N-(2-((3-(dimethylamino)propyl)(methyl)amino)-5-(trifluoromethyl)phenyl)-4-methyl-3-((2′-(methylamino)-3,4′-bipyridin-2-yl)oxy)benzamide], less than 1 µM.
In the case of `CNc1nccc(-c2cccnc2Oc2cc(C(=O)Nc3cc(C(F)(F)F)ccc3N(C)CCCN(C)C)ccc2C)n1` [N-(2-((3-(dimethylamino)propyl)(methyl)amino)-5-(trifluoromethyl)phenyl)-4-methyl-3-((3-(2-(methylamino)-4-pyrimidinyl)-2-pyridinyl)oxy)benzamide], the IC50 was less than 1 µM.
`CNc1ncnc(-c2cccnc2Oc2cc(C(=O)Nc3cc(C(F)(F)F)ccc3N(C)CCCN(C)C)ccc2C)n1` [N-(2-((3-(dimethylamino)propyl)(methyl)amino)-5-(trifluoromethyl)phenyl)-4-methyl-3-((3-(4-(methylamino)-1,3,5-triazin-2-yl)-2-pyridinyl)oxy)benzamide] yielded an IC50 of less than 1 µM.
In turn, `CNc1ncnc(-c2cccnc2Oc2ccc(NC(=O)Nc3cc(C(F)(F)F)ccc3N(C)CCCN(C)C)c3ccccc23)n1` [N-(2-((3-(dimethylamino)propyl)(methyl)amino)-5-(trifluoromethyl)phenyl)-N′-(4-((3-(4-(methylamino)-1,3,5-triazin-2-yl)-2-pyridinyl)oxy)-1-naphthalenyl)urea] displayed an IC50 of less than 1 µM.
Molecule `C#Cc1ccc(N(C)CCCN(C)C)c(NC(=O)c2cc(Oc3ncccc3-c3ccnc(NC)n3)ccc2F)c1` [N-(2-((3-(dimethylamino)propyl)(methyl)amino)-5-ethynylphenyl)-2-fluoro-5-((3-(2-(methylamino)-4-pyrimidinyl)-2-pyridinyl)oxy)benzamide] yielded an IC50 of less than 1 µM.
On to `CNc1nccc(-c2cccnc2Oc2cc(C(=O)Nc3cc(C(F)(F)F)ccc3N3CC[C@H](N(C)C)C3)ccc2C)n1` [N-(2-((3S)-3-(dimethylamino)-1-pyrrolidinyl)-5-(trifluoromethyl)phenyl)-4-methyl-3-((3-(2-(methylamino)-4-pyrimidinyl)-2-pyridinyl)oxy)benzamide], for which the IC50 was less than 1 µM.
The same measure for `CNc1ncnc(-c2cccnc2Oc2ccc(NC(=O)Nc3cc(C(F)(F)F)ccc3N3CC[C@H](N(C)C)C3)c3ccccc23)n1` [N-(2-((3S)-3-(dimethylamino)-1-pyrrolidinyl)-5-(trifluoromethyl)phenyl)-N′-(4-((3-(4-(methylamino)-1,3,5-triazin-2-yl)-2-pyridinyl)oxy)-1-naphthalenyl)urea]: less than 1 µM.
In turn, `CNc1ncnc(-c2cccnc2Oc2ccc(NC(=O)Nc3cc(C(F)(F)F)ccc3CN3CC[C@@H](N(C)C)C3)c3ccccc23)n1` [N-(2-(((3R)-3-(dimethylamino)-1-pyrrolidinyl)methyl)-5-(trifluoromethyl)phenyl)-N′-(4-((3-(4-(methylamino)-1,3,5-triazin-2-yl)-2-pyridinyl)oxy)-1-naphthalenyl)urea] showed a concentration for half-maximal inhibition (IC50) of less than 1 µM.
`CNc1cc(-c2cccnc2Oc2ccc(Cl)c(NC(=O)c3cccc(C(C)C)c3)c2)ccn1` [N-(2-chloro-5-((2′-(methylamino)-3,4′-bipyridin-2-yl)oxy)phenyl)-3-(1-methylethyl)benzamide] registered an IC50 of less than 1 µM.
To `CNc1ncnc(-c2cccnc2Oc2cc(C(=O)Nc3cc(C(F)(F)F)ccc3Cl)ccc2C)n1` [N-(2-chloro-5-(trifluoromethyl)phenyl)-4-methyl-3-((3-(4-(methylamino)-1,3,5-triazin-2-yl)-2-pyridinyl)oxy)benzamide] belongs less than 1 µM; to `Cc1ccc(C(=O)Nc2cc(C(F)(F)F)ccc2Cl)cc1Oc1ncccc1-c1ccncn1` [N-(2-chloro-5-(trifluoromethyl)phenyl)-4-methyl-3-((3-(4-pyrimidinyl)-2-pyridinyl)oxy)benzamide], less than 1 µM.
In turn, `CNc1nccc(-c2cccnc2Oc2ccc(NC(=O)Nc3cc(C(F)(F)F)ccc3Cl)cc2C)n1` [N-(2-chloro-5-(trifluoromethyl)phenyl)-N′-(3-methyl-4-((3-(2-(methylamino)-4-pyrimidinyl)-2-pyridinyl)oxy)phenyl)urea] yielded an IC50 of less than 1 µM.
In turn, `CNc1nccc(-c2cccnc2Oc2ccc(NC(=O)Nc3cc(C(F)(F)F)ccc3F)c3ccccc23)n1` [N-(2-fluoro-5-(trifluoromethyl)phenyl)-N′-(4-((3-(2-(methylamino)-4-pyrimidinyl)-2-pyridinyl)oxy)-1-naphthalenyl)urea] had an IC50 of less than 1 µM.
